Experiments:
[1] = test system: pores of the cheeks of healthy human males; test: Human pore-shrinking effect (replica assessment of cheek pores); type: in vivo; settings: for Replica assessment (average of n = 5): sample 3 mass %, twice a day for one month, pore size rating 1-13, after application minus before application, control 0.3; for pore-shrinking effect: summary of Table 2, concentrations as in Table 2
Procedure: An experiment was conducted whereby a sample was applied twice a day for one month to the cheeks of healthy human males in groups of 5 men each. Aqueous solutions (containing 15 mass % of ethanol) of 3 mass % of the α-amino acid derivative or a salt thereof were prepared as the evaluation sample. The pH was regulated by hydrochloric acid or sodium hydroxide so as to be 7.0 to 7.5. When sample solubility was low, the solution was prepared accordingly. The control was an aqueous 15% ethanol solution. The sample aqueous solution and control aqueous solution were applied to one half of the face at a time.
A replica was collected before and after continuous application, and changes in the shape of the pores at the same site were observed using a three-dimensional laser scanning microscope. The size of the pores was macroscopically evaluated in 13 steps of 1 through 13 (with the pores becoming larger as the numbers became larger), the difference in the ratings before and after application (after application-before application) was calculated, and the efficacy of each sample was studied using this difference as the replica assessment.

[2] = test system: back of a hairless mouse (HR-1), 10 mass % oleic acid applied; test: Parakeratosis-inhibiting effect tests: oleic acid applied to hairless mouse back, macroscopic rough skin evaluation and parakeratosis value; type: in vivo; settings: for Macroscopic evaluation (average of four animals) / Parakeratosis value (average of four animals): sample 3 mass %; for Macroscopic evaluation (average of four animals): 100 μL after oleic acid, three days, rough skin score 0.0 (no redness) to 2.0 (control); for Parakeratosis value (average of four animals): tape-stripped stratum corneum, hematoxylin, range 1.0 to 3.0, higher = parakeratosis advanced, control 2.0; for parakeratosis value / parakeratosis-inhibiting effect / rough skin preventing effect, based on stratum corneum peeling and redness: summary of Table 1, concentrations as in Table 1
Procedure: Aqueous solutions (containing 30 mass % of ethanol) of primarily 3 mass % of an α-amino acid derivative or salt thereof were prepared as the evaluation sample. The pH was regulated by hydrochloric acid or sodium hydroxide so as to be 7.0 to 7.5. When sample solubility was low, the solution was prepared accordingly.
100 μL of 10 mass % oleic acid solution (solvent: ethanol) were applied to the back of a hairless mouse (HR-1; Hoshino Laboratory Animals). Then the sample solution (α-amino acid derivative, and the like) was applied 100 μL at a time. This procedure was continued for three days. […] The status of the skin was evaluated in 0.25-point intervals, with skin where the control (control aqueous solution) had been applied being 2.0 and skin where there was no redness being 0.0. At the same time, the stratum corneum at the back of the hairless mouse was peeled off with tape, the nuclei were stained by hematoxylin, and the degree of parakeratosis was observed and evaluated by a parakeratosis value within a range of 1.0 to 3.0 (in 0.25 increments).

[3] = test system: back of hairless mice (HR-1), 10 mass % oleic acid applied; test: Inhibiting effect against rough skin induced by oleic acid application (transepidermal water loss); type: in vivo; set-up: ΔTEWL value: unit not given here; settings: for ΔTEWL value: sample 3 mass %, three days, average of four animals, rough skin worse as value increases, control 12.0; for ΔTEWL value compared with the control aqueous solution / rough skin preventing/ameliorating effect: summary of Table 3, concentrations as in Table 3
Procedure: In order to investigate the inhibiting effect of α-amino acid derivatives and salts thereof against rough skin induced by oleic acid application, the transepidermal water loss (TEWL value) before and after application was measured, the difference was compared with the control (control aqueous solution), and the effect was determined. Sample preparation and the application method were in accordance with Example 1. The TEWL was determined using the TM210 TEWA Meter (Courage+Khazaka Electronic GmBH).
100 μL of 10 mass % oleic acid (solvent: ethanol) was applied to the back of hairless mice (HR-1, four mice per group). Then a sample solution (α-amino acid derivatives, and the like) was applied 100 μL at a time. This procedure was continued for three days. The following day, the TEWL value of the back was determined and the values of the four animals were averaged. Rough skin became worse as the ΔTEWL value increased.

[4] = test system: cheek of a panel of 20 women; test: Sensory irritation tests; type: in vivo, human; settings: for Evaluation (sensory irritation, class of average rating): sample 3 mass %, 1 mL on cheek, evaluated for ten minutes, 20 women; for sensory irritation: summary of Table 4, β-alanine at 3%
Procedure: 1 mL of a control aqueous solution and the sample aqueous solution prepared in Example 1 were applied using a cotton swab to the left or right cheek, respectively, of a panel of 20 women, the irritating sensation was evaluated every 30 seconds for ten minutes beginning immediately after application, and a final evaluation was reported. The evaluation of the irritating sensation was based on the following four steps of rating criteria, the average rating was calculated, and the average was classified by the following criteria.
3: Discontinued because of extremely strong irritation, such as stinging sensation, burning sensation, tickling sensation, itching, and the like.
2: Intolerable strong irritation, such as stinging sensation, burning sensation, tickling sensation, itching, and the like.
1: Tolerable with only slight stinging sensation, burning sensation, tickling sensation, itching, and the like.
0: Not particularly irritating.
A: average rating of less than 0.2
B: average rating of 0.2 to less than 1.0
C: average rating of 1.0 to less than 2.0
D: average rating of 2.0 or greater

SMILES: O=C(N[C@H](CO)C(=O)O)OCc1ccccc1 [N-carbobenzoyloxy-D-serine]
- Replica assessment (average of n = 5) [1]: −1.3
- pore-shrinking effect [1]: seen
- Macroscopic evaluation (average of four animals) [2]: 1.2
- Parakeratosis value (average of four animals) [2]: 1.2
- parakeratosis value / parakeratosis-inhibiting effect [2]: reduced
- rough skin preventing effect, based on stratum corneum peeling and redness [2]: seen
- ΔTEWL value [3]: 6.8
- ΔTEWL value compared with the control aqueous solution / rough skin preventing/ameliorating effect [3]: significantly lower
- Evaluation (sensory irritation, class of average rating) [4]: A (average rating of less than 0.2)
- sensory irritation [4]: no problems

SMILES: C[C@H](NC(=O)OCc1ccccc1)C(=O)O [N-carbobenzoyloxy-L-alanine]
- Replica assessment (average of n = 5) [1]: −0.9
- pore-shrinking effect [1]: seen
- Macroscopic evaluation (average of four animals) [2]: 1.2
- Parakeratosis value (average of four animals) [2]: 1.3
- parakeratosis value / parakeratosis-inhibiting effect [2]: reduced
- rough skin preventing effect, based on stratum corneum peeling and redness [2]: seen
- ΔTEWL value [3]: 6.9
- ΔTEWL value compared with the control aqueous solution / rough skin preventing/ameliorating effect [3]: significantly lower
- Evaluation (sensory irritation, class of average rating) [4]: A (average rating of less than 0.2)
- sensory irritation [4]: no problems

SMILES: O=C(N[C@@H](CO)C(=O)O)OCc1ccccc1 [N-carbobenzoyloxy-L-serine]
- Replica assessment (average of n = 5) [1]: −1.2
- pore-shrinking effect [1]: seen
- Macroscopic evaluation (average of four animals) [2]: 1.2
- Parakeratosis value (average of four animals) [2]: 1.1
- parakeratosis value / parakeratosis-inhibiting effect [2]: reduced
- rough skin preventing effect, based on stratum corneum peeling and redness [2]: seen
- ΔTEWL value [3]: 6.7
- ΔTEWL value compared with the control aqueous solution / rough skin preventing/ameliorating effect [3]: significantly lower
- Evaluation (sensory irritation, class of average rating) [4]: A (average rating of less than 0.2)
- sensory irritation [4]: no problems

SMILES: C[C@@H](NC1CCCCC1)C(=O)O [N-cyclohexyl-D-alanine]
- Replica assessment (average of n = 5) [1]: −1.3
- pore-shrinking effect [1]: seen
- Macroscopic evaluation (average of four animals) [2]: 1.3
- Parakeratosis value (average of four animals) [2]: 1.4
- parakeratosis value / parakeratosis-inhibiting effect [2]: reduced
- rough skin preventing effect, based on stratum corneum peeling and redness [2]: seen
- ΔTEWL value [3]: 6.9
- ΔTEWL value compared with the control aqueous solution / rough skin preventing/ameliorating effect [3]: significantly lower
- Evaluation (sensory irritation, class of average rating) [4]: A (average rating of less than 0.2)
- sensory irritation [4]: no problems

SMILES: O=C(O)[C@@H](CO)NC1CCCCC1 [N-cyclohexyl-D-serine]
- Replica assessment (average of n = 5) [1]: −1.3
- pore-shrinking effect [1]: seen
- Macroscopic evaluation (average of four animals) [2]: 1.3
- Parakeratosis value (average of four animals) [2]: 1.2
- parakeratosis value / parakeratosis-inhibiting effect [2]: reduced
- rough skin preventing effect, based on stratum corneum peeling and redness [2]: seen
- ΔTEWL value [3]: 6.8
- ΔTEWL value compared with the control aqueous solution / rough skin preventing/ameliorating effect [3]: significantly lower
- Evaluation (sensory irritation, class of average rating) [4]: A (average rating of less than 0.2)
- sensory irritation [4]: no problems

SMILES: C[C@H](NC1CCCCC1)C(=O)O [N-cyclohexyl-L-alanine]
- Replica assessment (average of n = 5) [1]: −1.2
- pore-shrinking effect [1]: seen
- Macroscopic evaluation (average of four animals) [2]: 1.4
- Parakeratosis value (average of four animals) [2]: 1.3
- parakeratosis value / parakeratosis-inhibiting effect [2]: reduced
- rough skin preventing effect, based on stratum corneum peeling and redness [2]: seen
- ΔTEWL value [3]: 7.1
- ΔTEWL value compared with the control aqueous solution / rough skin preventing/ameliorating effect [3]: significantly lower
- Evaluation (sensory irritation, class of average rating) [4]: A (average rating of less than 0.2)
- sensory irritation [4]: no problems

SMILES: O=C(O)[C@H](CO)NC1CCCCC1 [N-cyclohexyl-L-serine]
- Replica assessment (average of n = 5) [1]: −1.4
- pore-shrinking effect [1]: seen
- Macroscopic evaluation (average of four animals) [2]: 1.3
- Parakeratosis value (average of four animals) [2]: 1.2
- parakeratosis value / parakeratosis-inhibiting effect [2]: reduced
- rough skin preventing effect, based on stratum corneum peeling and redness [2]: seen
- ΔTEWL value [3]: 7.0
- ΔTEWL value compared with the control aqueous solution / rough skin preventing/ameliorating effect [3]: significantly lower
- Evaluation (sensory irritation, class of average rating) [4]: A (average rating of less than 0.2)
- sensory irritation [4]: no problems

SMILES: O=C(O)CNC1CCCCC1 [N-cyclohexyl-glycine]
- Replica assessment (average of n = 5) [1]: −1.5
- pore-shrinking effect [1]: seen
- Macroscopic evaluation (average of four animals) [2]: 1.2
- Parakeratosis value (average of four animals) [2]: 1.1
- parakeratosis value / parakeratosis-inhibiting effect [2]: reduced
- rough skin preventing effect, based on stratum corneum peeling and redness [2]: seen
- ΔTEWL value [3]: 6.4
- ΔTEWL value compared with the control aqueous solution / rough skin preventing/ameliorating effect [3]: significantly lower
- Evaluation (sensory irritation, class of average rating) [4]: A (average rating of less than 0.2)
- sensory irritation [4]: no problems

SMILES: CCN[C@H](C)C(=O)O [N-ethyl-D-alanine]
- Replica assessment (average of n = 5) [1]: −0.5
- pore-shrinking effect [1]: seen
- Macroscopic evaluation (average of four animals) [2]: 1.6
- Parakeratosis value (average of four animals) [2]: 1.7
- parakeratosis value / parakeratosis-inhibiting effect [2]: reduced
- rough skin preventing effect, based on stratum corneum peeling and redness [2]: seen
- ΔTEWL value [3]: 8.3
- ΔTEWL value compared with the control aqueous solution / rough skin preventing/ameliorating effect [3]: significantly lower
- Evaluation (sensory irritation, class of average rating) [4]: A (average rating of less than 0.2)
- sensory irritation [4]: no problems

SMILES: CCN[C@H](CO)C(=O)O [N-ethyl-D-serine]
- Replica assessment (average of n = 5) [1]: −1.2
- pore-shrinking effect [1]: seen
- Macroscopic evaluation (average of four animals) [2]: 1.3
- Parakeratosis value (average of four animals) [2]: 1.3
- parakeratosis value / parakeratosis-inhibiting effect [2]: reduced
- rough skin preventing effect, based on stratum corneum peeling and redness [2]: seen
- ΔTEWL value [3]: 7.9
- ΔTEWL value compared with the control aqueous solution / rough skin preventing/ameliorating effect [3]: significantly lower
- Evaluation (sensory irritation, class of average rating) [4]: A (average rating of less than 0.2)
- sensory irritation [4]: no problems

SMILES: CCN[C@@H](C)C(=O)O [N-ethyl-L-alanine]
- Replica assessment (average of n = 5) [1]: −0.4
- pore-shrinking effect [1]: seen
- Macroscopic evaluation (average of four animals) [2]: 1.5
- Parakeratosis value (average of four animals) [2]: 1.4
- parakeratosis value / parakeratosis-inhibiting effect [2]: reduced
- rough skin preventing effect, based on stratum corneum peeling and redness [2]: seen
- ΔTEWL value [3]: 8.4
- ΔTEWL value compared with the control aqueous solution / rough skin preventing/ameliorating effect [3]: significantly lower
- Evaluation (sensory irritation, class of average rating) [4]: A (average rating of less than 0.2)
- sensory irritation [4]: no problems

SMILES: CCN[C@@H](CO)C(=O)O [N-ethyl-L-serine]
- Replica assessment (average of n = 5) [1]: −1.2
- pore-shrinking effect [1]: seen
- Macroscopic evaluation (average of four animals) [2]: 1.4
- Parakeratosis value (average of four animals) [2]: 1.4
- parakeratosis value / parakeratosis-inhibiting effect [2]: reduced
- rough skin preventing effect, based on stratum corneum peeling and redness [2]: seen
- ΔTEWL value [3]: 7.7
- ΔTEWL value compared with the control aqueous solution / rough skin preventing/ameliorating effect [3]: significantly lower
- Evaluation (sensory irritation, class of average rating) [4]: A (average rating of less than 0.2)
- sensory irritation [4]: no problems

From patent publication US20090215893A1, “Parakeratosis inhibitor, pore-shrinking agent,or rough skin preventing/ameliorating agent, and external composition for skin” (Shiseido Company Ltd, priority 2005, published 2009)
